Experimental findings from patent US4644000A, “Microbicidal agents containing 2-(1H-pyrazol-1-yl)-4-(3H)-quinazolinones” (Bayer Aktiengesellschaft, priority 1984, dated 1987) are described below.

In data set [1] the test system is Lentinus tigrinus. The data set is described as follows: MIC in beerwort/peptone agar, Lentinus tigrinus. The data set is classed as cell-based. The following applies: 28° C., 60 to 70% relative humidity, 2 weeks; for MIC: Lentinus tigrinus, 336 h. As for the experimental part: (§1) Active compounds according to the invention are added in concentrations of 0.1 mg/1 to 5,000 mg/1 to an agar prepared from beerwort and peptone. After storage at 28° C. and 60 to 70% relative atmospheric humidity for 2 weeks, the MIC is determined. The MIC is the lowest concentration of active compound at which no growth at all by the species of microbes used takes place, and is given in Table 1.

Data set [2] has as its system Trichoderma viride. In words: MIC in beerwort/peptone agar, Trichoderma viride. The conditions noted are these: 28° C., 60 to 70% relative humidity, 2 weeks; for MIC: Trichoderma viride, 336 h. The data set is classed as cell-based. How it is done:
as §1

Data set [3] relates to slime organisms. In words: MIC against slime organisms in Allens nutrient solution. The data set is classed as cell-based. The conditions noted are these: 504 h, about 10^6 germs/ml, 3 weeks at room temperature. As for the experimental part: Compounds according to the invention are used in concentrations of in each case 0.1 to 100 mg/l in Allens nutrient solution (Arch. Mikrobiol. 17, 34 to 53 (1952)), which contains, in 4 l of sterile water, 0.2 g of ammonium chloride, 4.0 g of sodium nitrate, 1.0 g of dipotassium hydrogen phosphate, 0.2 g of calcium chloride, 2.05 g of magnesium sulphate, 0.02 g of iron chloride and 1% of caprolactam, dissolved in a little acetone. Shortly beforehand, the nutrient solutions are infected with slime organisms (about 10^6 germs/ml), which have been isolated from the spinning water circulations used in the production of polyamide. Nutrient solutions which contain the minimum inhibitory concentration (MIC) or higher concentrations of active compound are still completely clear after culture for 3 weeks at room temperature, that is to say the pronounced reproduction of the microbes and slime formation noticeable after 3 to 4 days in nutrient solutions containing no active compounds are absent.

Data set [4] concerns Penicillium glaucum. In words: MIC in beerwort/peptone agar, Penicillium glaucum. The data set is classed as cell-based. The following applies: 28° C., 60 to 70% relative humidity, 2 weeks; for MIC: Penicillium, 336 h. How it is done:
as §1

For data set [5], the system named is Alternaria tenuis. The data set is described as follows: MIC in beerwort/peptone agar, Alternaria tenuis. The data set is classed as cell-based. The following applies: 28° C., 60 to 70% relative humidity, 2 weeks; for MIC: Alternaria alternata, 336 h. How it is done:
as §1

Data set [6] has as its system Aspergillus niger. The data set is described as follows: MIC in beerwort/peptone agar, Aspergillus niger. The data set is classed as cell-based. The following applies: 28° C., 60 to 70% relative humidity, 2 weeks; for MIC: Aspergillus niger, 336 h. As for the experimental part: as §1
Data set [7] concerns Coniophora puteana. In words: MIC in beerwort/peptone agar, Coniophora puteana. The data set is classed as cell-based. The conditions noted are these: 28° C., 60 to 70% relative humidity, 2 weeks; for MIC: Coniophora puteana, 336 h. As for the experimental part:
as §1

Data set [8] deals with Sclerophoma pityophila. The data set is described as follows: MIC in beerwort/peptone agar, Sclerophoma pityophila. The data set is classed as cell-based. The following applies: 28° C., 60 to 70% relative humidity, 2 weeks; for MIC: Sydowia polyspora, 336 h. As for the experimental part:
as §1

For data set [9], the system named is Aureobasidium pullulans. In words: MIC in beerwort/peptone agar, Aureobasidium pullulans. The data set is classed as cell-based. The following applies: 28° C., 60 to 70% relative humidity, 2 weeks; for MIC: Aureobasidium pullulans, 336 h. As for the experimental part:
as §1

The subject of data set [10] is Chaetomium globosum. The data set is described as follows: MIC in beerwort/peptone agar, Chaetomium globosum. The data set is classed as cell-based. The following applies: 28° C., 60 to 70% relative humidity, 2 weeks; for MIC: Chaetomium globosum, 336 h. As for the experimental part: as §1
Data set [11] has as its system Polyporus versicolor. In words: MIC in beerwort/peptone agar, Polyporus versicolor. The data set is classed as cell-based. The conditions noted are these: 28° C., 60 to 70% relative humidity, 2 weeks; for MIC: Trametes versicolor, 336 h. As for the experimental part:
as §1

The nature of data set [12]: Water solubility of potassium salt. The data set is classed as physicochemical. How it is done: 12.3 g (0.05 mole) of 2-(1H-pyrazol-1-yl)-6-chloro-4(3H)-quinazolinone (=compound from Example 4) are stirred in 1 liter of water with 45 ml of 1 N KOH for 1 hour. Residues of the starting material which have remained undissolved are removed, the clear solution is evaporated in vacuo and the solid residue is dried at 110° C. to give 12.2 g of water-soluble potassium salt of the quinazolinone employed.

The subject of data set [13] is fungi. The data set is described as follows: Mould resistance of PVA emulsion paint films (paint fungicide test, Report 219 Defense Standards Laboratories). The conditions noted are these: 28° to 30° C., 90 to 95% relative humidity, evaluated after 3 weeks; active compound E: even after ageing. How it is done:
Testing is carried out in accordance with the method in Report 219 of the Defense Standards Laboratories Maribyrnong/Australia as follows: a smooth card is coated on both sides with the paint to be tested and is dried at room temperature for 8 days. For ageing, part of the paint film is kept in running water of 24° for 24 hours, or aerated with fresh air of 40° to 60° C. for 8 days, or subjected to a dry Xenon test for 110 hours. Pieces of 5×5 cm cut out from the samples thus prepared are placed individually on a glucose nutrient medium in Petri dishes and contaminated with a spore suspension of the following fungi: Aspergillus niger, Aureobasidium pullulans, Alternaria tenuis, Penicillium citrinum, Stachybotrys atra, Paecilomyces varioti, Cladosporium herbarum, Aspergillus ustus and Aspergillus flavus.
The contaminated dishes are stored at 28° to 30° C. and 90 to 95% relative atmospheric humidity, and are evaluated after 3 weeks. Paint films are regarded as mould-resistant if the samples remain free from fungi after these tests.
A commercially available emulsion paint based on PVA is tested for mould resistance by the test method described above.

The subject of data set [14] is microbes (bacteria, yeasts and moulds). The data set is described as follows: Preservation of cooling lubricant use dilutions. The following applies: 3-5% strength use dilutions, contaminated each day for 3 months; 3% preservative in cooling lubricant. How it is done: 3% of a preservative composed of 90% of benzyl alcohol mono(poly)hemiformaland 10% of active compound E is added to a cooling lubricant based on mineral oil.
3-5% strength use dilutions of the cooling lubricant are contaminated massively each day for 3 months with microbes (bacteria, yeasts and moulds) isolated from microbially decayed cooling lubricant use dilutions.

≈ marks a conversion by molar mass, not a printed value. Bounds are passed on as bounds.

In the case of `O=c1[nH]c(-n2cccn2)nc2ccccc12` [Active compound A, 2-(1H-Pyrazol-1-yl)-4-(3H)-quinazolinone], the MIC in data set [1] came out at 20 µg/mL (≈ 94.2 µM); in data set [2], 100 µg/mL (≈ 471 µM); in data set [3], 30 µg/mL (≈ 141 µM); in data set [4], 100 µg/mL (≈ 471 µM); in [5], 20 µg/mL (≈ 94.2 µM); in data set [6] it was 100 µg/mL (≈ 471 µM). The MIC in data set [7] was 1 µg/mL (≈ 4.71 µM); in data set [8] it was 20 µg/mL (≈ 94.2 µM); in [9] it was 5 µg/mL (≈ 23.6 µM); in data set [10], 100 µg/mL (≈ 471 µM); in data set [11], 20 µg/mL (≈ 94.2 µM).
In the case of `Cc1cnn(-c2nc3ccccc3c(=O)[nH]2)c1` [Active compound B, 2-(4-Methyl-1H-pyrazol-1-yl)-4(3H)-quinazolinone], the MIC in data set [1] is < 10 µg/mL; in data set [2], 50 µg/mL (≈ 221 µM); in data set [4], 7 µg/mL (≈ 30.9 µM); in [5], 75 µg/mL (≈ 332 µM); in data set [6], 50 µg/mL (≈ 221 µM); in data set [8], 50 µg/mL (≈ 221 µM). The MIC in data set [9] was 10 µg/mL (≈ 44.2 µM); in [10], < 20 µg/mL; in [11], < 10 µg/mL.
In the case of `Cc1ccn(-c2nc3ccccc3c(=O)[nH]2)n1` [Active compound C, 2-(3-Methyl-1H-pyrazol-1-yl)-4(3H)-quinazolinone], the MIC in [1] came to 20 µg/mL (≈ 88.4 µM); in [2] it was 50 µg/mL (≈ 221 µM); in [3] it was 100 µg/mL (≈ 442 µM); in data set [4], 75 µg/mL (≈ 332 µM); in data set [5] it was 15 µg/mL (≈ 66.3 µM); in data set [6], 35 µg/mL (≈ 155 µM). In addition, the MIC in data set [7] is < 0.1 µg/mL; in [8], 10 µg/mL (≈ 44.2 µM); in data set [9], 50 µg/mL (≈ 221 µM); in data set [10] it was 5 µg/mL (≈ 22.1 µM); in [11], 35 µg/mL (≈ 155 µM).
As to `Cc1ccnn1-c1nc2ccccc2c(=O)[nH]1` [Active compound D, 2-(5-Methyl-1H-pyrazol-1-yl)-4(3H)-quinazolinone], the MIC is 20 µg/mL (≈ 88.4 µM) in data set [1]; 50 µg/mL (≈ 221 µM) in data set [2]; 75 µg/mL (≈ 332 µM) in data set [3]; 35 µg/mL (≈ 155 µM) in data set [4]; 15 µg/mL (≈ 66.3 µM) in data set [5]; 35 µg/mL (≈ 155 µM) in data set [6]. Besides, the MIC in [7] was < 0.1 µg/mL; in [8], 50 µg/mL (≈ 221 µM); in data set [9] it was 35 µg/mL (≈ 155 µM); in data set [10], 5 µg/mL (≈ 22.1 µM); in data set [11], 15 µg/mL (≈ 66.3 µM).
As for `CCc1cnn(-c2nc3ccccc3c(=O)[nH]2)c1` [Active compound F, 2-(4-Ethyl-1H-pyrazol-1-yl)-4(3H)-quinazolinone], the MIC in data set [1] is 20 µg/mL (≈ 83.2 µM); in data set [2] it was 50 µg/mL (≈ 208 µM); in data set [3], 30 µg/mL (≈ 125 µM); in data set [4], 35 µg/mL (≈ 146 µM); in data set [6], 50 µg/mL (≈ 208 µM); in data set [8], 50 µg/mL (≈ 208 µM). Also, the MIC in [9] was 50 µg/mL (≈ 208 µM); in data set [10], < 20 µg/mL; in data set [11], 30 µg/mL (≈ 125 µM).
With `Cc1cnn(-c2nc3ccc(Cl)cc3c(=O)[nH]2)c1` [Active compound G, 2-(4-Methyl-1H-pyrazol-1-yl)-6-chloro-4-(3H)-quinazolinone], the MIC in data set [4] came out at 7 µg/mL (≈ 26.9 µM); in data set [7] it was 1 µg/mL (≈ 3.84 µM); in [8], 5 µg/mL (≈ 19.2 µM); in data set [10], 1 µg/mL (≈ 3.84 µM).
`O=c1[nH]c(-n2cccn2)nc2cc(Cl)ccc12` [Active compound H, 2-(1H-Pyrazol-1-yl)-7-chloro-4(3H)-quinazolinone]: the MIC in data set [3] was found to be 100 µg/mL (≈ 405 µM).
Turning to `O=c1[nH]c(-n2cccn2)nc2ccc(Cl)cc12` [Example 32, 2-(1H-pyrazol-1-yl)-6-chloro-4(3H)-quinazolinone], the “water solubility (in words)” value in data set [12] was “water-soluble”.
Consider `CN(C)C(=S)SSC(=S)N(C)C` [tetramethylthiuram disulphide, reference compound], for which the “content of fungicide at which PVA emulsion paint films are mould-resistant” value in data set [13] is on record as ≥ 4%.
With “Isomer mixture of 2-(3- and 5-methyl-1H-pyrazol-1-yl)-4(3H)-quinazolinone [Active compound E]”, in [1], the “MIC value, Lentinus tigrinus” value was determined as 20 µg/mL. Also, the “MIC value, Trichoderma viride” value in [2] is 75 µg/mL. For the same compound, the “MIC value, Penicillium glaucum” value in data set [4] stood at 35 µg/mL. Moreover, in data set [5], the “MIC value, Alternaria tenuis” value was determined as 75 µg/mL. Moreover, the “MIC value, Aspergillus niger” value in [6] was 50 µg/mL. In data set [13], the “content of fungicide at which PVA emulsion paint films are mould-resistant” value came to 0.5%. The “MIC value, Coniophora puteana” value in data set [7] was 1 µg/mL. Further, in [8], the “MIC value, Sclerophoma pityophila” value amounted to 2 µg/mL. Further, in [9], the “MIC value, Aureobasidium pullulans” value was 15 µg/mL. The “MIC value, Chaetomium globosum” value in data set [10] came to 3 µg/mL. Further, in data set [11], the “MIC value, Polyporus versicolor” value was determined as 35 µg/mL.
Take benzyl alcohol mono(poly)hemiformal: the “state of cooling lubricant use dilutions at the end of the testing period” value in data set [14] is “show attack by mould at the end of the testing period”.

One may read the MIC as the lowest concentration that inhibits growth of the organism. Higher therefore signals a need for much substance.
